Here are results for 15 molecules from patent US7538233B2, “Coumarins as iNOS inhibitors” (Aventis Pharmaceuticals Inc., priority 2003, dated 2009).

A value given as a limit tells only on which side of the number the result lay.

Common to all, as to type: biochemical
One assay concerns the target Human NOS-2 (Homo sapiens, UniProt P35228). Put plainly: Human NOS-2 assay ([3H]-arginine to [3H]-citrulline conversion). As to conditions: 60 min at 37° C., 2.5 μM L-[3H]arginine; * mean of 3, ** mean of 2 determinations; read-out: Human iNOS, IC50.
The next assay concerns the target T1, Bovine NOS-3 (eNOS) (Bos taurus, UniProt P29473).
T1 construct: purchased Cayman Chemical 60880; host or cells: Baculovirus / Sf9 cells
Briefly: Bovine NOS-3 (eNOS) assay ([3H]-arginine to [3H]-citrulline conversion). To be noted: recombinant bovine NOS-3, 120 min, 10 μM L-[3H]arginine; ** mean of 2 determinations.

A further assay has as its target T2, Rat NOS-1 (nNOS) (Rattus norvegicus, UniProt P29476).
T2 construct: purchased Cayman Chemical 60870; host or cells: Baculovirus / Sf9 cells
Put plainly: Rat NOS-1 (nNOS) assay ([3H]-arginine to [3H]-citrulline conversion). As to conditions: recombinant rat nNOS, 20 min at 37° C., 2 μM L-[3H]arginine; * mean of 3 determinations.

Another assay concerns the target T3, Murine NOS-2 (iNOS) (Mus musculus, UniProt P29477).
T3 construct: purchased Cayman Chemical 60864; host or cells: E. coli
Briefly: Murine NOS-2 (iNOS) assay ([3H]-arginine to [3H]-citrulline conversion). To be noted: recombinant murine NOS-2, 20 min at 37° C., 10 uM L-[3H]arginine; ** mean of 2 determinations.

T1 sequence (P29473 2-1205): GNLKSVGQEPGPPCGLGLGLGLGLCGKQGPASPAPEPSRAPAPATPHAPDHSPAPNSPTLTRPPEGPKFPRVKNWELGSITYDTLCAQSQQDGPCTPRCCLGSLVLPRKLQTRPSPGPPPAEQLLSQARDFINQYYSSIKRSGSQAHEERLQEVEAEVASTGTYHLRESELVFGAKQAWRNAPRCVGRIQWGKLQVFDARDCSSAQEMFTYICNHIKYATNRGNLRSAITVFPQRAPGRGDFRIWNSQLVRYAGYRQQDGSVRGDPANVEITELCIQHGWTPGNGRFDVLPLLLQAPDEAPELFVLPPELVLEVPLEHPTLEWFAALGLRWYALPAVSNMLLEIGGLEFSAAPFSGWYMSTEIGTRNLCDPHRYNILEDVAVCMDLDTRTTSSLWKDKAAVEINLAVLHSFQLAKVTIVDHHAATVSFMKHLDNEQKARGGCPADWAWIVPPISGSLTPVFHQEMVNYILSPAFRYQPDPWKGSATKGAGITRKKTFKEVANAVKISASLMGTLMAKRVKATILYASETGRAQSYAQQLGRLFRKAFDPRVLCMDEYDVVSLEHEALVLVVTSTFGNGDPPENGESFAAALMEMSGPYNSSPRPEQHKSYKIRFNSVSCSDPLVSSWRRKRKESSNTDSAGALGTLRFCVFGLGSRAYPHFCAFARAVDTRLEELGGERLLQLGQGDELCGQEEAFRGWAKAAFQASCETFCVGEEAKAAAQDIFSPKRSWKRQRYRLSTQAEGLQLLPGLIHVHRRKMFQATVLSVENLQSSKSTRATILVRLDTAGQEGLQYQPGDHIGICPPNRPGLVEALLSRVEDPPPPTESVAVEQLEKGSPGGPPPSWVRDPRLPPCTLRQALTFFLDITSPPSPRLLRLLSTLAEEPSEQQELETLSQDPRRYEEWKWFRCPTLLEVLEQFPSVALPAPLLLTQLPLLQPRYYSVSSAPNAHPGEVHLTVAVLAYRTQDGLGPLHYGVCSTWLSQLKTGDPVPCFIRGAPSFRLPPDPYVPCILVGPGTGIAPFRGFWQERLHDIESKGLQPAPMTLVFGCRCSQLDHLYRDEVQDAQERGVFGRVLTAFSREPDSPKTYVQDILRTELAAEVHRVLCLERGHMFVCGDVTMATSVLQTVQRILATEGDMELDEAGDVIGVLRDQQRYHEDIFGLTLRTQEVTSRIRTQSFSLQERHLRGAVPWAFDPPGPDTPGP
T3 sequence (P29477 whole entry): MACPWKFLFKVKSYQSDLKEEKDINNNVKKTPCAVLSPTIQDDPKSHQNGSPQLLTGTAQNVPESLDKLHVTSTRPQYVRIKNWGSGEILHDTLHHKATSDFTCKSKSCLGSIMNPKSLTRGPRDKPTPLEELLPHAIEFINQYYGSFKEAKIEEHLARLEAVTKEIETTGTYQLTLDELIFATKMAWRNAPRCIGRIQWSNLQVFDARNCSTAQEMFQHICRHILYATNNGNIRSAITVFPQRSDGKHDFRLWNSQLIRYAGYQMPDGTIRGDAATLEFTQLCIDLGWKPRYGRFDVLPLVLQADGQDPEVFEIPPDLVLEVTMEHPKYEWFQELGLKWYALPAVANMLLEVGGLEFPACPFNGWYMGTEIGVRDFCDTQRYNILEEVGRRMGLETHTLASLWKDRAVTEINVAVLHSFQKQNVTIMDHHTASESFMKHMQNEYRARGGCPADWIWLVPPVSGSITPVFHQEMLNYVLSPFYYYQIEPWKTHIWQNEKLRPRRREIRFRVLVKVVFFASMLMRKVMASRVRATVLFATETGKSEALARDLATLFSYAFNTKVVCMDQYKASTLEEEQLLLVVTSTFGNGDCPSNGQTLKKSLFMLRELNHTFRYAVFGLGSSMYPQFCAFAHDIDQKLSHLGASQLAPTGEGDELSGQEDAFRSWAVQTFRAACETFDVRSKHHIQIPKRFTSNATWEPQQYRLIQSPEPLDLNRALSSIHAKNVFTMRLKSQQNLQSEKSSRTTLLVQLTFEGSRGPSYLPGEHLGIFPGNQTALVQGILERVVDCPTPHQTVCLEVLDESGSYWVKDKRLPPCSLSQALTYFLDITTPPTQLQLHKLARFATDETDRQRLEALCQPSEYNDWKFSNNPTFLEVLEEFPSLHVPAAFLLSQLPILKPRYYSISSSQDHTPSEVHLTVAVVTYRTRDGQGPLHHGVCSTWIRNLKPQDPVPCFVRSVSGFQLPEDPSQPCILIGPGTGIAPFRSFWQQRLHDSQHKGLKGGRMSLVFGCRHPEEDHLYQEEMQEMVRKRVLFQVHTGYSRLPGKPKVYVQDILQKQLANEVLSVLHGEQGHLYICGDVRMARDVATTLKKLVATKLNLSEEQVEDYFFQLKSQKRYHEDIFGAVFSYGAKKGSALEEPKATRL
Sequence of Human NOS-2 (P35228 whole entry): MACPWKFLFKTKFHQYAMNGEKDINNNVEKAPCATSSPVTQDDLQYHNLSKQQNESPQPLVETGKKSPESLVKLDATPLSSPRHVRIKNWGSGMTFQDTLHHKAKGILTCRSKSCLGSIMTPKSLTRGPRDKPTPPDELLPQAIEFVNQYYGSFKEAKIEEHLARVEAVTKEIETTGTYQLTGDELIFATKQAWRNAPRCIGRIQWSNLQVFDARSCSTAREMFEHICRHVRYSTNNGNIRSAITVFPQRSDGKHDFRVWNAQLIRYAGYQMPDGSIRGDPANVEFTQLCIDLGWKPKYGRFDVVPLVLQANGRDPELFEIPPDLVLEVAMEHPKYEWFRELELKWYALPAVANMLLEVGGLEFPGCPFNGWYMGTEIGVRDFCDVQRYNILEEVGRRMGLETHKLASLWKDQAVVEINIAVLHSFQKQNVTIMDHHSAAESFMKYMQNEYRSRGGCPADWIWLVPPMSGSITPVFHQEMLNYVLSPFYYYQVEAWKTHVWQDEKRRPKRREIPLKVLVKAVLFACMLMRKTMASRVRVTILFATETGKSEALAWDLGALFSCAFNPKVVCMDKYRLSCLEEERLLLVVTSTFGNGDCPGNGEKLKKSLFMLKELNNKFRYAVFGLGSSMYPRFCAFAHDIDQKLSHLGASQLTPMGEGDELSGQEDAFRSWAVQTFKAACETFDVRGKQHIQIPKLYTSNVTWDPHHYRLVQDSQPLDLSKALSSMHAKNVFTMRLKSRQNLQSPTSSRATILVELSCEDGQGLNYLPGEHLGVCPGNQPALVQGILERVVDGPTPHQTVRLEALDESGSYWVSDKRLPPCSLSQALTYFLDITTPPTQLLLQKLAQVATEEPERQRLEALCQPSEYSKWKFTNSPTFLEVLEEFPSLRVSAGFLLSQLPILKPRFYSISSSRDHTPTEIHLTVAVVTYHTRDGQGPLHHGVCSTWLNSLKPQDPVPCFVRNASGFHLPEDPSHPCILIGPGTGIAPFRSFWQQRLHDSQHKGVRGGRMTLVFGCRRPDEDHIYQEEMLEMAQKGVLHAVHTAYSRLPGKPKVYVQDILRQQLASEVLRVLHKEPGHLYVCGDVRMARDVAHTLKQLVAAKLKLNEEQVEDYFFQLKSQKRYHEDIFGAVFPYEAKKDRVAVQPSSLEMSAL
T2 sequence (P29476 whole entry): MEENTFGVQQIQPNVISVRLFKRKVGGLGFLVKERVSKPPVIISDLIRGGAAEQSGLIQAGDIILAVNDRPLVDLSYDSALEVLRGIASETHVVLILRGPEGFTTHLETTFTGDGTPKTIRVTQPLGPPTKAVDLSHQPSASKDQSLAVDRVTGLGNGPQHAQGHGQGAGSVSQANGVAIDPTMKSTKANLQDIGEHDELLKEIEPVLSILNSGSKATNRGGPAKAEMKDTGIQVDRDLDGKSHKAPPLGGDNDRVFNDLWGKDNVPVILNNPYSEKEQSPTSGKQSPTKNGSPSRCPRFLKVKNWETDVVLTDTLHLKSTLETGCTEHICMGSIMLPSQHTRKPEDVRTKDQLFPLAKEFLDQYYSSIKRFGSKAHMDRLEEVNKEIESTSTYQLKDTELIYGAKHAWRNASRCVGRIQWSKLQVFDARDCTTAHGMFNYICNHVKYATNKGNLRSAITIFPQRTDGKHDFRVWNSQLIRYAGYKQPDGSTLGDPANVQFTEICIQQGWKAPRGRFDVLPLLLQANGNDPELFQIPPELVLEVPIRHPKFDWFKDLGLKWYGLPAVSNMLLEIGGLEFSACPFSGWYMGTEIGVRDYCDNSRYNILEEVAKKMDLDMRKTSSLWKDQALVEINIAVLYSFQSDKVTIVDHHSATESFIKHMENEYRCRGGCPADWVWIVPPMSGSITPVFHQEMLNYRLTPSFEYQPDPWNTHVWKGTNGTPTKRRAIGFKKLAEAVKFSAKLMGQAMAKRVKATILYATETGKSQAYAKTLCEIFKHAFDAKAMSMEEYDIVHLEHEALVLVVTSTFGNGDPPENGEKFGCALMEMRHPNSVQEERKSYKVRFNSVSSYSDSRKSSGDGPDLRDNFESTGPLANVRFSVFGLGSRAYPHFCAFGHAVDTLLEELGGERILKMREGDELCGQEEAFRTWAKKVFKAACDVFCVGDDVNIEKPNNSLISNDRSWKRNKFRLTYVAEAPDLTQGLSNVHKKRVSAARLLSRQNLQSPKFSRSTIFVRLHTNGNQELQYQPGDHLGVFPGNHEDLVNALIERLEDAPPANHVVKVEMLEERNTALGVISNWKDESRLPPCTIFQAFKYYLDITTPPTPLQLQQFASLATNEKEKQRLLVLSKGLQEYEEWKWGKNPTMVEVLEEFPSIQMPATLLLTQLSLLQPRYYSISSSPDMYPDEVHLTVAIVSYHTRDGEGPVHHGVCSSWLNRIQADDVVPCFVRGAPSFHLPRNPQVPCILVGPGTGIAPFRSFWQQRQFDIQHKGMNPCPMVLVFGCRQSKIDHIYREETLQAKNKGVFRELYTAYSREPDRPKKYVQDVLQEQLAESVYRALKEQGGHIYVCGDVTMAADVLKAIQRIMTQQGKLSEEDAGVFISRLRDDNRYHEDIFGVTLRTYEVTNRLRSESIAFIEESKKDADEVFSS
Experimental for Bovine NOS-3 (eNOS): Experimental conditions (protein concentration, incubation time) required for measuring NOS activity (37° C.) in screening assays are controlled for each batch of enzyme prepared or commercially obtained.
(§1) 0.012 Units recombinant rat nNOS is incubated in Costar polystyrene 96-well microplates 20 min at 37° C. with 2 μM L-[^3H]arginine, 1 mM NADPH, 15 μM 6R-tetrahydrobiopterin, 1 μM FAD, and 10 μg/ml calmodulin prepared in HEPES buffer (50 mM, pH 7.4) containing 0.1 mM DL-dithiothreitol, 1 mM EDTA and 1.25 mM CaCl2 (final volume: 90 μl).
(§2) 0.06 μCi/well L-[^3H]arginine (Amersham; ˜55.0 Ci/mmol, 1 mCi/ml) is used.
(§3) The incubations are terminated by using the Beckman Multimek to transfer 60 ul of the assay solution into Millipore MAHV N45 plates, packed with 80 ul/well 500 mg of AG® 50W-X8 (counterion Na^+) cation exchange resin and pre-washed with 100 ul of HEPES buffer (100 mM, pH 5.5) containing 10 mM EGTA. After filtering under vacuum into opaque scintillation plates, approximately 220 ul of Packard Microscint-40 is added to each well using a Titertek multidrop. The plates are counted on a Packard TopCount to quantify L-[^3H]citrulline by liquid scintillation counting.
(§4) The recovery of L-[^3H]citrulline can be estimated by using L-[ureido-^14C]-citrulline (NEN; 58.8 mCi/mmol) as an external standard (4.05 nCi/0.09 ml). Specific NOS I-like activity corresponds to the L-NNA-sensitive formation of L-citrulline per minute and milligram of protein (pmol/min/unit of protein).
Aliquots of commercial enzyme fraction (quantity used variable from one batch to another, but normally 0.012 Units/90 ul reaction volume) are usually incubated for 120 min in the presence of 10 μM L-[^3H]arginine (0.15 uCi/well).
(§5) For all NOS assays in vitro, the inhibitory activities of screened compounds (usually tested at 10^−9-10^−4 M) are represented by their IC50 values determined by non-linear regression analysis with Activity Base Software (Data management system from IDBS Ltd).
Experimental for Human NOS-2: (§6) Experimental conditions (protein concentration, incubation time) required for measuring NOS activity (37° C.) in screening assays are controlled for each batch of enzyme prepared or commercially obtained. NOS enzymatic assays are based on the conversion of [^3H]-arginine into [^3H]-citrulline originally described by Bredt and Snyder (1990, Proc. Natl. Acad. Sci. USA 87, 682-685).
as §3
Human iNOS is used as 1:30 diluted preparation, is usually incubated for 60 min at 37° C. in the presence of 2.5 μM L-[^3H]arginine (0.06 uCi tracer/well).
as §5
Experimental for Murine NOS-2 (iNOS): A recombinant murine NOS-2 (inducible) preparation is purchased from Cayman Chemical (Catalog N^o 60864). This preparation corresponds to murine NOS-2 expressed in E. Coli, and represents a 100,000×supernatant. To avoid thawing/freezing cycles, this enzymatic preparation is divided into small fractions (25-100 μl) stored at −80° C. until use.
as §6, §2, §3
The recovery of L-[^3H]citrulline can be estimated by using L-[ureido-^14C]-citrulline (NEN; 58.8 mCi/mmol) as an external standard (4.05 nCi/0.09 ml).
as §5
Experimental for Rat NOS-1 (nNOS): To avoid thawing/freezing cycles, this enzymatic preparation is divided into small fractions (25-100 μl) stored at −80° C. until use.
as §6, §1, §2, §3, §4, §5

The term IC50 denotes the concentration at which inhibition is half-maximal. As to `O=c1cc(OCCC2CCCCN2)c2cc(Cl)ccc2o1` (stereo not drawn) [Example 34, 6-Chloro-4-(2-piperidin-2-yl-ethoxy)-1-benzopyran-2-one], the half-maximal inhibitory concentration (IC50) on Human NOS-2 is 2 µM; at Bovine NOS-3 (eNOS), > 10 µM; at Rat NOS-1 (nNOS) it was 1 µM; on Murine NOS-2 (iNOS) it was 4.2 µM.

Regarding `Cc1ccc2oc(=O)cc(OCCCN(C)C)c2c1` [Example 23, 4-(3-Dimethylamino-propoxy)-6-methyl-1-benzopyran-2-one], the half-inhibitory concentration (IC50) on Human NOS-2 was 4.7 µM; at Bovine NOS-3 (eNOS) it was > 10 µM; at Rat NOS-1 (nNOS) it was > 10 µM; on Murine NOS-2 (iNOS), 3 µM.

As for `NCCCCOc1cc(=O)oc2ccc(Cl)cc12` [Example 31, 4-(4-Amino-butoxy)-6-chloro-1-benzopyran-2-one], the IC50 was 2 µM on Human NOS-2, > 10 µM at Bovine NOS-3 (eNOS), > 10 µM at Rat NOS-1 (nNOS) and 1 µM on Murine NOS-2 (iNOS).

Consider `NCCCCc1cc(=O)oc2ccc(Cl)cc12` [Example 57, 4-(4-Aminobutyl)6-chloro-1-benzopyran-2-one], for which, at Human NOS-2, the IC50 was 3.6 µM.

Regarding `NCCCCCOc1cc(=O)oc2ccc(Cl)cc12` [Example 32, 4-(5-Amino-pentyloxy)-6-chloro-1-benzopyran-2-one], the 50% inhibitory concentration (IC50) on Human NOS-2 came out at 1.3 µM.

Take `CNCCCOc1cc(=O)oc2ccc(Cl)cc12` [Example 3, 6-Chloro-4-(3-methylamino-propoxy)-1-benzopyran-2-one]: the IC50 at Human NOS-2 is 0.11 µM; on Bovine NOS-3 (eNOS), > 10 µM; on Rat NOS-1 (nNOS) it was 0.53 µM; at Murine NOS-2 (iNOS) it was 0.25 µM.

Take `NCCCOc1cc(=O)oc2ccc(F)cc12` [Example 12, 4-(3-Amino-propoxy)-6-fluoro-1-benzopyran-2-one]: the half-maximal inhibitory concentration (IC50) is 1.1 µM on Human NOS-2, > 10 µM at Bovine NOS-3 (eNOS), 1.6 µM on Rat NOS-1 (nNOS) and 0.44 µM on Murine NOS-2 (iNOS).

As for `CN(C)CCCOc1cc(=O)oc2ccc(Cl)cc12` [Example 22, 6-Chloro-4-(3-dimethylamino-propoxy)-1-benzopyran-2-one], the IC50 on Human NOS-2 is 4.1 µM; on Bovine NOS-3 (eNOS), > 10 µM; at Rat NOS-1 (nNOS), 8 µM; on Murine NOS-2 (iNOS), 1.2 µM.

Turning to `N=C(N)NCCCOc1cc(=O)oc2ccc(Cl)cc12` [Example 28, N-[3-(6-Chloro-2-oxo-2H-1-benzopyran-4-yloxy)-propyl]guanidine], the IC50 on Human NOS-2 was 0.51 µM; at Bovine NOS-3 (eNOS), > 10 µM; at Rat NOS-1 (nNOS), 0.5 µM; on Murine NOS-2 (iNOS), 0.39 µM.

For `CN(C)CCCOc1cc(=O)oc2ccccc12` [Example 2, 4-(3-Dimethylamino-propoxy)-1-benzopyran-2-one], the IC50 at Human NOS-2 is 4 µM; on Bovine NOS-3 (eNOS) it was > 10 µM; on Rat NOS-1 (nNOS) it was > 10 µM; on Murine NOS-2 (iNOS), > 10 µM.

For the molecule `NCCCOc1cc(=O)oc2ccccc12` [Example 19, 4-(3-Amino-propoxy)-1-benzopyran-2-one], the 50% inhibitory concentration (IC50) on Human NOS-2 was 7.6 µM; on Bovine NOS-3 (eNOS) it was > 10 µM; at Rat NOS-1 (nNOS), 9.1 µM; at Murine NOS-2 (iNOS), 7.4 µM.

On to `Cc1ccc2oc(=O)cc(OCCCN)c2c1` [Example 14, 4-(3-Amino-propoxy)-6-methyl-1-benzopyran-2-one], for which the IC50 was 0.3 µM at Human NOS-2, > 10 µM on Bovine NOS-3 (eNOS), 0.65 µM at Rat NOS-1 (nNOS) and 0.3 µM at Murine NOS-2 (iNOS).

As to `NCCCOc1cc(=O)oc2ccc(Cl)cc12` [Example 1, 6-Chloro-4-(3-aminopropoxy)-1-benzopyran-2-one], the IC50 at Human NOS-2 is 0.094 µM; at Bovine NOS-3 (eNOS) it was > 10 µM; on Rat NOS-1 (nNOS) it was 0.56 µM; on Murine NOS-2 (iNOS), 0.06 µM.

With `O=c1cc(OCC2CCCNC2)c2cc(Cl)ccc2o1` (stereo not drawn) [Example 33, 6-Chloro-4-(piperidin-3-ylmethoxy)-1-benzopyran-2-one], the concentration for half-maximal inhibition (IC50) on Murine NOS-2 (iNOS) is 1.5 µM.

Take `NCCCOc1cc(=O)oc2ccc(Br)cc12` [Example 11, 4-(3-Amino-propoxy)-6-bromo-1-benzopyran-2-one]: the IC50 at Human NOS-2 is 0.1 µM; at Bovine NOS-3 (eNOS), > 10 µM; on Rat NOS-1 (nNOS) it was 0.36 µM; at Murine NOS-2 (iNOS) it was 0.14 µM.
